System: hemorrhoids (Goligher type I, II, III and IV)
Assay: Clinical test of rectally administered suppositories in volunteers with hemorrhoids (Goligher's classification)
Type: in vivo
Details: adult human beings of both genders, 20 to 80 years old, daily dosage as in Table 1, average ± standard error, n=20
Procedure: For such, various volunteers were randomly selected.
In short, volunteers, aging from 20 to 80 years old, were tested and observed for 28 days by rectally administering suppositories of 2 g each, containing the active ingredients in the indicated proportion: methionine (170 mg/day), cysteine (20 mg/day) and phenylalanine (10 mg/day) each.
The indicated values in the Table are average values in 20 experiments±standard errors (n=20).

Q: Which “Bleeding inhibition after 72 h (%)” value does the source give for `N[C@@H](CS)C(=O)O` [L-cysteine] here?
A: The value was 10 ± 1%.

Q: What about the “Relapse after 5 years (%)” value of the same compound?
A: Its value is 80 ± 8%.

Q: For `CSCC[C@H](N)C(=O)O` [L-methionine], which “Bleeding inhibition after 72 h (%)” value is on record?
A: Its value is 70 ± 7%.

Q: What about the “Relapse after 5 years (%)” value of the same compound?
A: Its value is 15 ± 2%.

Q: Which results are given for `N[C@@H](Cc1ccccc1)C(=O)O` [L-phenylalanine]?
A: Bleeding inhibition after 72 h (%): 2 ± 1%; Relapse after 5 years (%): 90 ± 9%
